Experimental data from US10189845B2, “4,6-substituted-pyrazolo[1,5-a]pyrazines as janus kinase inhibitors” (ARRAY BIOPHARMA INC., priority 2014, dated 2019).
Like-named read-outs stand apart in the source and are kept apart here.

Tests used:
Assay type in all cases: biochemical
[1] = molecular target: Human Tyk2 kinase domain (Homo sapiens (Human), UniProt P29597); test: Tyk2 Inhibition Assay (Example A, Omnia kinase fluorescence peptide substrate assay); settings: TYK2 Enzyme IC50 1 mM ATP, averaged IC50 ranges
Chain of Human Tyk2 kinase domain (P29597 886-1187): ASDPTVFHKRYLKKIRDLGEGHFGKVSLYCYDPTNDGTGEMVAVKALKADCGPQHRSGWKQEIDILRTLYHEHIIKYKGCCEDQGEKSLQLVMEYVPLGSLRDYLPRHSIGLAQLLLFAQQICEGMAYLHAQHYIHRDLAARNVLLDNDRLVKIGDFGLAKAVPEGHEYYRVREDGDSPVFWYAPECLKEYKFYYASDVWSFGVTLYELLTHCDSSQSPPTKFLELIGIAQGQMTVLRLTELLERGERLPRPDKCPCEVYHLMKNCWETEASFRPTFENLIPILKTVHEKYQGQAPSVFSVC
Description: (§1) The assays described in Examples A, B, C and D for the determination of Tyk2, JAK1, JAK2 and JAK3 kinase activity, respectively, utilized the Omnia® Kinase fluorescence peptide substrate-based technology (Invitrogen). The specific components of the assay mixture are described in Examples A, B, C and D. In these assays, Mg^2+ is chelated upon phosphorylation of the Omnia peptide by the kinase to form a bridge between the chelation-enhanced fluorophore Sox and the phosphate, resulting in an increase in fluorescence emission at 485 nm when excited at […]. The reactions were therefore read at excitation 360 nm and emission was measured at 485 nm every 50 seconds for 45 minutes using a PerkinElmer EnVision Multilabel Plate Reader.
(§2) The final buffer conditions for Tyk2, JAK1, JAK2, and JAK3 assays were as follows: 25 mM HEPES, pH 7.4, 10 mM MgCl2, 0.01% Triton X-100 and 1 mM DTT.
(§3) Two-μL aliquots of these were transferred to a fresh plate for a ten-fold intermediate dilution with assay buffer. Five-μL aliquots of the diluted compounds were then transferred to 20-μL of assay mixtures described in Examples A, B, C and D for a final concentration of DMSO of 2%. […] For each plate, percent of control (POC) values were calculated for each well according to the following equation: […]
(§4) IC50's were estimated from the POC's using a standard 4-parameter logistic model:
(§5) The IC50 is defined as the concentration of inhibitor at which the POC equals 50 for the fitted curve.
Compounds of Formula I were screened for their ability to inhibit Tyk2 using the general enzyme inhibition assay method, in which the assay mixture contained 1 mM ATP, 8 μM Omnia Y12 peptide (Catalog # IVGN KPZ3121C; Invitrogen Corporation, Carlsbad, Calif.) and 1 nM Tyk2 in a total volume of 25 μL. Human Tyk2 kinase domain, comprising amino acids 886 to 1187 with 10 additional histidine residues (histidine tag) on the carboxy terminus, was expressed and purified from bacculovirus in-house at Array BioPharma Inc. (Boulder, Colo.). The histidine tag was cleaved after purification using standard conditions.

[2] = molecular target: JAK1 (Homo sapiens (Human), UniProt P23458); test: JAK1 Inhibition Assay (Example B, Omnia kinase fluorescence peptide substrate assay)
Chain of JAK1 (P23458 whole entry): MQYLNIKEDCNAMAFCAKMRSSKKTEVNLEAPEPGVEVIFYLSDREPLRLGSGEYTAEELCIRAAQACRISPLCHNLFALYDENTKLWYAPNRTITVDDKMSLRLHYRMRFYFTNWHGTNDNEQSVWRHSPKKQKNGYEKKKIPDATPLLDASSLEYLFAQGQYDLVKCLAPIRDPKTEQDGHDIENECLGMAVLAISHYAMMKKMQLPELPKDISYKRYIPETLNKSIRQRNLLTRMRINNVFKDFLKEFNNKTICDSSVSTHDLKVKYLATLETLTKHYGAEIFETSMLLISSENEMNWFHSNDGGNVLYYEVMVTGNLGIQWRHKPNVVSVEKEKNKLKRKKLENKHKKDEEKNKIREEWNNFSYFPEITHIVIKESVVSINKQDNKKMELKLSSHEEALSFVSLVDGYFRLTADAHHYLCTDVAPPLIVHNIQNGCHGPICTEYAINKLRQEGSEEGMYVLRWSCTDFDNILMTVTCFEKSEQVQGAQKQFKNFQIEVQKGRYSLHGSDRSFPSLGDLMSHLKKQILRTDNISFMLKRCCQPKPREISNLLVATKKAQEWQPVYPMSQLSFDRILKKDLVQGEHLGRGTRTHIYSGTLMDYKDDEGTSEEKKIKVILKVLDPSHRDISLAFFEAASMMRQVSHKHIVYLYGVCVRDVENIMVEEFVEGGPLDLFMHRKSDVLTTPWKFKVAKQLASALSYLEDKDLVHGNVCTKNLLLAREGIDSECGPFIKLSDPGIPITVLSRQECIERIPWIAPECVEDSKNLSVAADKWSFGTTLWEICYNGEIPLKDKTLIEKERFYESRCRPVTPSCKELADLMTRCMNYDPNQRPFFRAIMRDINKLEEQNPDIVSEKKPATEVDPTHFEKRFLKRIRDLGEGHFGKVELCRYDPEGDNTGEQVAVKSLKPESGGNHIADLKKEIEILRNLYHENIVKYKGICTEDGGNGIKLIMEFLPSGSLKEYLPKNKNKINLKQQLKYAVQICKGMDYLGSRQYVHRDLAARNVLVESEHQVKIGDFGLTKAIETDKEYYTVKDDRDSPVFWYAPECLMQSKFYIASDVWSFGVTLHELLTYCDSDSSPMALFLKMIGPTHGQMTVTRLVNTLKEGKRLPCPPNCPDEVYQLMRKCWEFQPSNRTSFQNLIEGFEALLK
Description: as §1, §2, §3, §4, §5
(§6) Compounds of Formula I were screened for their ability to inhibit JAK1 using the general enzyme inhibition assay method, in which the assay mixture contained 1 mM ATP, 8 μM Omnia® Y12 peptide (Catalog # IVGN KPZ3121C; Invitrogen Corporation, Carlsbad, Calif.) and 12.5 nM JAK1 in a total volume of 25 μL. JAK1 was purchased from Invitrogen Corporation, Carlsbad, Calif. (catalog # IVGN PV4775).

[3] = molecular target: JAK3 (Homo sapiens (Human), UniProt P52333); test: JAK3 Inhibition Assay (Example D, Omnia kinase fluorescence peptide substrate assay)
Chain of JAK3 (P52333 whole entry): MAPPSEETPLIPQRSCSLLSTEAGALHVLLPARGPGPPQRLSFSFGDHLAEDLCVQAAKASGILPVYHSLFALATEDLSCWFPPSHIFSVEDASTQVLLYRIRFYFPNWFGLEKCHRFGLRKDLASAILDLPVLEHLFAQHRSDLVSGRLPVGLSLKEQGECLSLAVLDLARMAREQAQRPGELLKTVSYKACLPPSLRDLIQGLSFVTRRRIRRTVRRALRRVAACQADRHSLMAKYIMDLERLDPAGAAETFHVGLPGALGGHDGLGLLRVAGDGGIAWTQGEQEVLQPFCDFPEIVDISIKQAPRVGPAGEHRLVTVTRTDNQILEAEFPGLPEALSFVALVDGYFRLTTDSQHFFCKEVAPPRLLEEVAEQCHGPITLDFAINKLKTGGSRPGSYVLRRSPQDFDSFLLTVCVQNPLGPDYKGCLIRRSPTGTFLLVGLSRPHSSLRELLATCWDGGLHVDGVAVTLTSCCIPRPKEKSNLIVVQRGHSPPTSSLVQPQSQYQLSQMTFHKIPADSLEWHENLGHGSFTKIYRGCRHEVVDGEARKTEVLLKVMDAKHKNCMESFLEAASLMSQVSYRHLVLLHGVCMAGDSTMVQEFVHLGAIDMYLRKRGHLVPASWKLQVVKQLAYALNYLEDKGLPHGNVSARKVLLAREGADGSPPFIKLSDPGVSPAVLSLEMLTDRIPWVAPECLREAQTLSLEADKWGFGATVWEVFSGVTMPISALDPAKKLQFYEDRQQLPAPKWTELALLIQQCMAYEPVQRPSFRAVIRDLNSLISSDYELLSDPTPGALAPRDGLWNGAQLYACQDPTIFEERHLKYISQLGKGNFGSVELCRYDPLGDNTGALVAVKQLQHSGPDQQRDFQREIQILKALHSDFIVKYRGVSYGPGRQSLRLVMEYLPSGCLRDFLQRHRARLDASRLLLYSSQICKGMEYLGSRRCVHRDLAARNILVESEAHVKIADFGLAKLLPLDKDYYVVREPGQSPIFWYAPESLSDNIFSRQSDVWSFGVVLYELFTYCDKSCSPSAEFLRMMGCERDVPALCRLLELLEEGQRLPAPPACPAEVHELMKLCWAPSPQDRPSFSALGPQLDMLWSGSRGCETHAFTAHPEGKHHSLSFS
Description: as §1, §2, §3, §4, §5
as §6, with “JAK3” for “JAK1”, “10” for “8”, “Y7” for “Y12”, “KNZ3071C,” for “KPZ3121C;”, “2” for “12.5”, “PV4080).” for “PV4775).”

[4] = molecular target: JAK2 (Homo sapiens (Human), UniProt O60674); test: JAK2 Inhibition Assay (Example C, Omnia kinase fluorescence peptide substrate assay); settings: JAK2 Enzyme IC50 1 mM ATP, averaged IC50 ranges
Chain of JAK2 (O60674 whole entry): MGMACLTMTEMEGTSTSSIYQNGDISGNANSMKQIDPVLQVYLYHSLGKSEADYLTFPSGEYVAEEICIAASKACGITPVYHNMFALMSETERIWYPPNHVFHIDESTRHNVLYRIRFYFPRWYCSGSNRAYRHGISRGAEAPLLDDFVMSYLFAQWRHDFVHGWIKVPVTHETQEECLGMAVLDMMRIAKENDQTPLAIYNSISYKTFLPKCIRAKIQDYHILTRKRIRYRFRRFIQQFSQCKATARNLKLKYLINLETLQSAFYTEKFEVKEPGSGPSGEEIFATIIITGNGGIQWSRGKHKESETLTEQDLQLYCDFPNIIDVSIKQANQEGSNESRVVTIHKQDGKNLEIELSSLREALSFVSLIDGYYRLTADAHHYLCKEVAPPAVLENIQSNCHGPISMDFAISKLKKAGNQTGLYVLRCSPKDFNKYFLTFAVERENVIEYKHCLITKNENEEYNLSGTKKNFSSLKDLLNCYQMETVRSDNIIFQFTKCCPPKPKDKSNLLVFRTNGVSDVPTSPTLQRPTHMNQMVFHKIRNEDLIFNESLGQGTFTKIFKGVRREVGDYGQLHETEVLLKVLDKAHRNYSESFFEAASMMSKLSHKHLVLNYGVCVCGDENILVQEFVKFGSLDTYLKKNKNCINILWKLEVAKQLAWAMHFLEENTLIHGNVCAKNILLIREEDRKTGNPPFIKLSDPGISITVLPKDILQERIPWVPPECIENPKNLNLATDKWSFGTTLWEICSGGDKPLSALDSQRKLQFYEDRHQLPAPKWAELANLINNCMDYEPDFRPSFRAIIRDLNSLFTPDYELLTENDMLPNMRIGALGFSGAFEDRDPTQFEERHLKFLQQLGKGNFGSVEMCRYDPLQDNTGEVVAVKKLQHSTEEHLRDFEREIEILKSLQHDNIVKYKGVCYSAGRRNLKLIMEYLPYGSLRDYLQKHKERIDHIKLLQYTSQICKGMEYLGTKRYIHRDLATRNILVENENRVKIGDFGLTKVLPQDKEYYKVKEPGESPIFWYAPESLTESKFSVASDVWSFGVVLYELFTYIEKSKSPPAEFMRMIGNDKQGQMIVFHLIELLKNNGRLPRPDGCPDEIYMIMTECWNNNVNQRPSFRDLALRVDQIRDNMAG
Description: as §1, §2, §3, §4, §5
as §6, with “JAK2” for “JAK1”, “10” for “8”, “Y7” for “Y12”, “KNZ3071C,” for “KPZ3121C;”, “4” for “12.5”, “PV4288).” for “PV4775).”

[5] = JAK1 Enzyme IC50 1 mM ATP, 1 mM ATP, averaged IC50 ranges

Row | SMILES | IC50 [1] [nM] | IC50 [2, 5] [nM] | IC50 [3] [nM] | IC50 [4] [nM] | IC50 [2] [nM]
1 | CC[C@@H](C1CCC1)n1cc(-c2nc(-c3cnn(C[C@@H](O)CO)c3)cn3nccc23)cn1 (single isomer, unassigned) [Example 197] | 10 to 100 | 100 to 1000 | 1000 to 10000 | 10 to 100 | –
2 | CCC(CC)n1cc(-c2nc(-c3cnn(C[C@@H](O)CCO)c3)cn3nccc23)cn1 (single isomer, unassigned) [Example 200] | 10 to 100 | – | 1000 to 10000 | 10 to 100 | 100 to 1000
3 | CC[C@@H]1CCC[C@@H]1n1cc(-c2nc(-c3cnn(C[C@@H](O)CO)c3)cn3nccc23)cn1 (single isomer, unassigned) [Example 207] | 10 to 100 | 100 to 1000 | 100 to 1000 | < 10 | –
4 | CCC(CC)n1cc(-c2nc(-c3cnn([C@H]4CCC[C@H]4O)c3)cn3nccc23)cn1 (single isomer, unassigned) [compound 190] | 100 to 1000 | 1000 to 10000 | 1000 to 10000 | 100 to 1000 | –
5 | CCC(CC)n1cc(-c2nc(-c3cnn(C[C@H](O)CCO)c3)cn3nccc23)cn1 (single isomer, unassigned) [compound 201] | 10 to 100 | – | 1000 to 10000 | 10 to 100 | 1000 to 10000
6 | CCOC(C)n1cc(-c2nc(-c3cnn(C)c3)cn3nccc23)cn1 (stereo not drawn) [Example 1, 4-(1-(1-ethoxyethyl)-1H-pyrazol-4-yl)-6-(1-methyl-1H-pyrazol-4-yl)pyrazolo[1,5-a]pyrazine] | 1000 to 10000 | – | 1000 to 10000 | 1000 to 10000 | 1000 to 10000
7 | CCC(CC)n1cc(-c2nc(-c3cnn(CCN(C)S(C)(=O)=O)c3)cn3nccc23)cn1 [Example 9, N-methyl-N-(2-(4-(4-(1-(pentan-3-yl)-1H-pyrazol-4-yl)pyrazolo[1,5-a]pyrazin-6-yl)-1H-pyrazol-1-yl)ethyl)methanesulfonamide] | 10 to 100 | 100 to 1000 | 1000 to 10000 | 10 to 100 | –
8 | CCC(CC)n1cc(-c2nc(-c3cnn(CCN(C)C)c3)cn3nccc23)cn1 [Example 10, N,N-dimethyl-2-(4-(4-(1-(pentan-3-yl)-1H-pyrazol-4-yl)pyrazolo[1,5-a]pyrazin-6-yl)-1H-pyrazol-1-yl)ethanamine] | 10 to 100 | – | 1000 to 10000 | 10 to 100 | 1000 to 10000
9 | CCC(CC)n1cc(-c2nc(-c3cnn(CC4CCS(=O)(=O)CC4)c3)cn3nccc23)cn1 [Example 11, 4-((4-(4-(1-(pentan-3-yl)-1H-pyrazol-4-yl)pyrazolo[1,5-a]pyrazin-6-yl)-1H-pyrazol-1-yl)methyl)tetrahydro-2H-thiopyran 1,1-dioxide] | 10 to 100 | – | 1000 to 10000 | 10 to 100 | 1000 to 10000
10 | CCC(CC)n1cc(-c2nc(-c3cnn(C[C@@H](C)CO)c3)cn3nccc23)cn1 [Example 14, (R)-2-methyl-3-(4-(4-(1-(pentan-3-yl)-1H-pyrazol-4-yl)pyrazolo[1,5-a]pyrazin-6-yl)-1H-pyrazol-1-yl)propan-1-ol] | 10 to 100 | 10 to 100 | 1000 to 10000 | 10 to 100 | –
11 | CCC(CC)n1cc(-c2nc(-c3cnn(C[C@H](C)CO)c3)cn3nccc23)cn1 [Example 15, (S)-2-methyl-3-(4-(4-(1-(pentan-3-yl)-1H-pyrazol-4-yl)pyrazolo[1,5-a]pyrazin-6-yl)-1H-pyrazol-1-yl)propan-1-ol] | 10 to 100 | 10 to 100 | 1000 to 10000 | 10 to 100 | –

Other lines, results leading:

Row | IC50 [1] [nM] | IC50 [2, 5] [nM] | IC50 [3] [nM] | IC50 [4] [nM] | IC50 [2] [nM] | SMILES
12 | 100 to 1000 | 1000 to 10000 | 1000 to 10000 | 100 to 1000 | – | CC[C@@H](n1cc(-c2nc(-c3cnn(C[C@@H](O)CO)c3)cn3nccc23)cn1)C(C)(F)F (single isomer, unassigned) [Example 199]
13 | 10 to 100 | – | 1000 to 10000 | 10 to 100 | 100 to 1000 | CCC(CC)n1cc(-c2nc(-c3cnn(C[C@@](C)(O)CO)c3)cn3nccc23)cn1 (single isomer, unassigned) [Example 202]
14 | 10 to 100 | – | 1000 to 10000 | 10 to 100 | 100 to 1000 | CCC(CC)n1cc(-c2nc(-c3cnn(C[C@](C)(O)CO)c3)cn3nccc23)cn1 (single isomer, unassigned) [Example 203]
15 | 100 to 1000 | 1000 to 10000 | 1000 to 10000 | 10 to 100 | – | CC[C@H]1CCC[C@H]1n1cc(-c2nc(-c3cnn(C[C@@H](O)CO)c3)cn3nccc23)cn1 (single isomer, unassigned) [Example 208]
16 | 100 to 1000 | – | 1000 to 10000 | 100 to 1000 | 1000 to 10000 | CCC(CC(F)(F)F)n1cc(-c2nc(-c3cnn(C(CO)CO)c3)cn3nccc23)cn1 (single isomer, unassigned) [Example 212]
17 | 100 to 1000 | – | 1000 to 10000 | 100 to 1000 | 1000 to 10000 | Cn1cc(-c2cn3nccc3c(-c3cnn(C4CCCCCC4)c3)n2)cn1 [Example 2, 4-(1-cycloheptyl-1H-pyrazol-4-yl)-6-(1-methyl-1H-pyrazol-4-yl)pyrazolo[1,5-a]pyrazine]
18 | 10 to 100 | – | 1000 to 10000 | 10 to 100 | 1000 to 10000 | CCC(CC)n1cc(-c2nc(-c3cnn(CCN4CCOCC4)c3)cn3nccc23)cn1 [Example 3, 4-(2-(4-(4-(1-(pentan-3-yl)-1H-pyrazol-4-yl)pyrazolo[1,5-a]pyrazin-6-yl)-1H-pyrazol-1-yl)ethyl)morpholine]
19 | 10 to 100 | – | 1000 to 10000 | 10 to 100 | 100 to 1000 | CCC(CC)n1cc(-c2nc(-c3cnn(CC4CCOCC4)c3)cn3nccc23)cn1 [Example 4, 4-(1-(pentan-3-yl)-1H-pyrazol-4-yl)-6-(1-((tetrahydro-2H-pyran-4-yl)methyl)-1H-pyrazol-4-yl)pyrazolo[1,5-a]pyrazine]
20 | 10 to 100 | – | 1000 to 10000 | 100 to 1000 | 100 to 1000 | CCC(CC)n1cc(-c2nc(-c3cnn(CC(=O)N(C)C)c3)cn3nccc23)cn1 [Example 5, N,N-dimethyl-2-(4-(4-(1-(pentan-3-yl)-1H-pyrazol-4-yl)pyrazolo[1,5-a]pyrazin-6-yl)-1H-pyrazol-1-yl)acetamide]
21 | 10 to 100 | – | 1000 to 10000 | 10 to 100 | 10 to 100 | CCC(CC)n1cc(-c2nc(-c3cnn(CC(=O)N4CCOCC4)c3)cn3nccc23)cn1 [Example 6, 1-morpholino-2-(4-(4-(1-(pentan-3-yl)-1H-pyrazol-4-yl)pyrazolo[1,5-a]pyrazin-6-yl)-1H-pyrazol-1-yl)ethanone]
22 | 10 to 100 | – | 1000 to 10000 | 10 to 100 | 1000 to 10000 | CCC(CC)n1cc(-c2nc(-c3cnn(CCCS(C)(=O)=O)c3)cn3nccc23)cn1 [Example 7, 6-(1-(3-(methylsulfonyl)propyl)-1H-pyrazol-4-yl)-4-(l-(pentan-3-yl)-1H-pyrazol-4-yl)pyrazolo[1,5-a]pyrazine]
23 | 100 to 1000 | – | 1000 to 10000 | 100 to 1000 | 1000 to 10000 | CCC(CC)n1cc(-c2nc(-c3cnn(CCCN(C)C)c3)cn3nccc23)cn1 [Example 12, N,N-dimethyl-3-(4-(4-(1-(pentan-3-yl)-1H-pyrazol-4-yl)pyrazolo[1,5-a]pyrazin-6-yl)-1H-pyrazol-1-yl)propan-1-amine]
24 | 10 to 100 | – | 1000 to 10000 | 10 to 100 | 10 to 100 | CCC(CC)n1cc(-c2nc(-c3cnn(CC4(CO)COC4)c3)cn3nccc23)cn1 [Example 16, (3-((4-(4-(1-(pentan-3-yl)-1H-pyrazol-4-yl)pyrazolo[1,5-a]pyrazin-6-yl)-1H-pyrazol-1-yl)methyl)oxetan-3-yl)methanol]
